In the supplement of paper PMC4932681:

How the values were obtained:
Assay in all cases: viability inhibition at highest dose (% inhibition); higher = more growth inhibition
BT-474 Tam1 = settings: 4-OH-tamoxifen in medium 1 µM; 72 h
Method in brief: (§1)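 Breast cancer cell lines and their resistant derivatives were seeded into 384-well plates containing library drugs at five concentrations across a 10 000-fold range, with resistant lines kept in medium with 1 μM of the selecting drug. After 72 h at 37 °C, CellTiter-Glo viability was read on a PHERAstar and normalised to vehicle-only and positive controls. Logistic dose–response fits in the Breeze pipeline gave drug sensitivity score, relative IC50 (curve midpoint) and top-dose inhibition.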

ZR-75-1 Tam1 = settings: 4-OH-tamoxifen in medium 1 µM; 72 h
Method in brief: as §1

MCF-7 Tam1 = settings: 4-OH-tamoxifen in medium 1 µM; 72 h
Method in brief: as §1

T-47D Tam2 = settings: 4-OH-tamoxifen in medium 1 µM; 72 h
Method in brief: as §1

T-47D Tam1 = settings: 4-OH-tamoxifen in medium 1 µM; 72 h
Method in brief: as §1

BT-474 = settings: 72 h
Method in brief: as §1

BT-474 Tam2 = settings: 4-OH-tamoxifen in medium 1 µM; 72 h
Method in brief: as §1

ZR-75-1 = settings: 72 h
Method in brief: as §1

T-47D = settings: 72 h
Method in brief: as §1

MCF-7 = settings: 72 h
Method in brief: as §1

ZR-75-1 Tam2 = settings: 4-OH-tamoxifen in medium 1 µM; 72 h
Method in brief: as §1

SMILES	viability inhibition at highest dose (BT-474 Tam1)	viability inhibition at highest dose (ZR-75-1 Tam1)	viability inhibition at highest dose (MCF-7 Tam1)	viability inhibition at highest dose (T-47D Tam2)	viability inhibition at highest dose (T-47D Tam1)	viability inhibition at highest dose (BT-474; 4-OH-tamoxifen in medium 0 µM)	viability inhibition at highest dose (BT-474; 4-OH-tamoxifen in medium 1 µM)	viability inhibition at highest dose (BT-474 Tam2)	viability inhibition at highest dose (ZR-75-1; 4-OH-tamoxifen in medium 0 µM)	viability inhibition at highest dose (ZR-75-1; 4-OH-tamoxifen in medium 1 µM)	viability inhibition at highest dose (T-47D; 4-OH-tamoxifen in medium 0 µM)	viability inhibition at highest dose (T-47D; 4-OH-tamoxifen in medium 1 µM)	viability inhibition at highest dose (MCF-7; 4-OH-tamoxifen in medium 0 µM)	viability inhibition at highest dose (MCF-7; 4-OH-tamoxifen in medium 1 µM)	viability inhibition at highest dose (ZR-75-1 Tam2)
CCCS(=O)(=O)Nc1ccc(F)c(C(=O)c2c[nH]c3ncc(-c4ccc(Cl)cc4)cc23)c1F [Vemurafenib (PLX4032)] (drug 10000 nM)	-8.2	8.49	3.76	21.7	-8.15	-0.692	16.2	-15	-0.616	10.2	-10.9	17.5	7.54	-8.65	0.975
CC[C@]1(O)C[C@@H]2CN(CCc3c([nH]c4ccccc34)[C@@](C(=O)OC)(c3cc4c(cc3OC)N(C)[C@H]3[C@@](O)(C(=O)OC)[C@H](OC(C)=O)[C@]5(CC)C=CCN6CC[C@]43[C@@H]65)C2)C1 [Vinblastine] (drug 1000 nM)	88	30.2	19.6	57.8	55.2	43.3	87.4	91.8	24.6	34.4	14.7	22.2	51.4	57.6	35.9
CC[C@]1(O)C[C@H]2CN(CCc3c([nH]c4ccccc34)[C@@](C(=O)OC)(c3cc4c(cc3OC)N(C=O)[C@H]3[C@@](O)(C(=O)OC)[C@H](OC(C)=O)[C@]5(CC)C=CCN6CC[C@]43[C@@H]65)C2)C1 [Vincristine] (drug 10000 nM)	93.7	29.2	12.1	59	68.8	47.4	83.8	84.9	28.7	28.5	16.5	31.2	56.6	54.4	35.9
CCC1=C[C@@H]2CN(C1)Cc1c([nH]c3ccccc13)[C@@](C(=O)OC)(c1cc3c(cc1OC)N(C)[C@H]1[C@@](O)(C(=O)OC)[C@H](OC(C)=O)[C@]4(CC)C=CCN5CC[C@]31[C@@H]54)C2 [Vinorelbine (tartrate)] (drug 10000 nM)	95.6	29.4	6.83	63	59.6	46.9	94	93.8	26.2	36.3	6.97	31.1	49.1	55.8	29.9
CS(=O)(=O)c1ccc(C(=O)Nc2ccc(Cl)c(-c3ccccn3)c2)c(Cl)c1 [Vismodegib] (drug 10000 nM)	18.7	5.76	10.9	3.9	-0.759	2.54	9.28	6.56	-1.58	4.37	3.38	6.47	8.35	5.18	10.7
CC[C@@H]1C(=O)N(C)c2cnc(Nc3ccc(C(=O)N[C@H]4CC[C@H](N5CCN(CC6CC6)CC5)CC4)cc3OC)nc2N1C(C)C [Volasertib (BI 6727)] (drug 1000 nM)	26	18.7	0.498	21.4	24.6	13.2	25.5	9.62	7.01	16.1	30.8	-1.17	24.2	24.7	18.7
O=C(CCCCCCC(=O)Nc1ccccc1)NO [Vorinostat] (drug 10000 nM)	91.2	38.9	23.1	41.9	58.5	76.5	92.9	86.8	37.5	32.9	87.5	88.9	83.5	80.9	37.8
Oc1nc(-c2ccc(C(F)(F)F)cc2)nc2c1CSCC2 [XAV-939] (drug 10000 nM)	9.15	3.25	-5.47	-6.24	22.1	2.3	-20.3	10.1	5.02	3.5	-0.891	1.95	7.77	11.1	12.7
COCC[n+]1c2c(n(Cc3cnccn3)c1C)C(=O)c1ccccc1C2=O [YM155] (drug 10000 nM)	99.4	99.6	98.9	94.1	96.1	99	100	98.6	96	98	98.1	98.6	99.8	99.1	95.8
O=P(O)(O)C(O)(Cn1ccnc1)P(=O)(O)O [Zoledronic acid] (drug 10000 nM)	2.75	-0.251	-6.7	1.06	-5.82	-0.0303	-3.42	-6.19	-6.71	-4.06	-11.4	-6.56	-12.6	-12.2	-9.06
